Structures can show the parent of a compound that is named as a salt.
Test: RP, Restek Raptor Biphenyl, 100 × 2.1 mm, 2.7 µm, 50 °C, 0.4 mL/min, estimated dead time 0.55 min; A: water + 0.1% formic acid, pH 3; B: methanol + 0.1% formic acid, pH 3; gradient (min/%B) 0/5 1.12/5 6.41/99.5 10.01/99.5
Conditions: stereoisomer not certain

Row | LC retention time | SMILES
1 | 1.01 min | CC(O)(CC(=O)O)CC(=O)O [3-Hydroxy-3-methylglutaric acid]
2 | 2.51 min | CSCCC(O)C(=O)O (stereo not drawn) [2-HYDROXY-4-(METHYLTHIO)BUTANOATE]
3 | 4.06 min | OCCc1c[nH]c2ccccc12 [INDOLE-3-ETHANOL]
4 | 3.02 min | O=C(O)Cc1ccc(O)cc1 [4-Hydroxyphenylacetic acid]
5 | 6.13 min | CCCCCCCCCCCCCCCCCC(=O)OC(CC(=O)[O-])C[N+](C)(C)C [Stearoyl-L-carnitine]
6 | 6.6 min | CCCCCCCCCCCCCCCCC(=O)O [Heptadecanoic acid]
7 | 6.67 min | CCCCCCCCCCCCCCCCCCCC[n+]1cccc(S(=O)(=O)[O-])c1 [C20-APS]
8 | 2.76 min | CC(C)CC(O)C(=O)O (stereo not drawn) [2-Hydroxyisocaproic acid]
9 | 6.67 min | CCCCCCCCCCCCCCCCCC(=O)O [Stearic acid]
10 | 6.34 min | CCCCCCCCCCCCCCCC[n+]1cccc(S(=O)(=O)[O-])c1 [C16-APS]
11 | 2.95 min | CC(C)=CC(=O)NCC(=O)O [3-Methylcrotonyl Glycine]
12 | 6.3 min | CCCCCCCCCCCCCCC(O)C(=O)O (stereo not drawn) [2-Hydroxyhexadecanoic acid]
13 | 0.702 min | O=c1cc[nH]c(=O)[nH]1 [URACIL]
14 | 1.05 min | NCC(=O)CCC(=O)O [5-AMINOLEVULINATE]
15 | 4.8 min | CCCCCCCC[n+]1cccc(S(=O)(=O)[O-])c1 [C8-APS]
16 | 1.92 min | N[C@@H](Cc1ccc(O)c([N+](=O)[O-])c1)C(=O)O [3-NITRO-L-TYROSINE]
17 | 6.61 min | CCCCCC/C=C/CCCCCCCCCC(=O)O [trans-Vaccenic Acid]
18 | 6.72 min | CCCCCCCCCCCCCCCCCCC(=O)O [Nonadecanoic acid]
19 | 6.42 min | CC(CCC(=O)O)C1CCC2C3C(=O)CC4CC(O)CCC4(C)C3CCC12C (stereo not drawn) [Nutriacholic Acid]
20 | 0.746 min | O=C(O)CC[C@H](O)C(=O)O [L-α-Hydroxyglutaric acid disodium salt]
21 | 3.95 min | O=C(O)CCCCCCC(O)CC(=O)O (stereo not drawn) [3-Hydroxy Sebacic Acid]

Row | LC retention time | SMILES
22 | 4.92 min | O=C(O)CCCCCCCC(O)C(O)CCCCCCO (stereo not drawn) [Aleuritic acid]
23 | 2.98 min | O=C(O)C(O)c1ccccc1 (stereo not drawn) [MANDELATE]
24 | 6.18 min | CCCCCCC(O)CC=CCCCCCCCC(=O)O (stereo not drawn) [Ricinoleic acid]
25 | 3.67 min | Nc1nc2ncc(CNc3ccc(C(=O)NC(CCC(=O)O)C(=O)O)cc3)nc2c(=O)[nH]1 (stereo not drawn) [FOLATE]
26 | 4.57 min | COc1ccc2[nH]cc(CCNC(C)=O)c2c1 [MELATONIN]
27 | 6.42 min | COC(=O)c1c(Cl)nn(C)c1S(=O)(=O)NC(=O)Nc1nc(OC)cc(OC)n1 [Halosulfuron-methyl]
28 | 3.35 min | O=C(O)CCCCCC(=O)O [6-CARBOXYHEXANOATE]
29 | 1.52 min | O=C(O)C(O)c1cccc(O)c1 (stereo not drawn) [3-Hydroxymandelic acid]
30 | 6.37 min | CC(CCC(=O)O)C1CCC2C3CCC4CC(O)CCC4(C)C3CC(O)C12C (stereo not drawn) [Deoxycholic acid]
31 | 6.07 min | C[C@H](CCC(=O)O)[C@H]1CC[C@H]2[C@@H]3[C@H](O)C[C@@H]4C[C@H](O)CC[C@]4(C)[C@H]3CC(=O)[C@]12C [(3ALPHA,5BETA,7ALPHA)-3,7-DIHYDROXY-12-OXOCHOLAN-24-OIC ACID]
32 | 4.48 min | O=C(O)CCCCCCCC(=O)O [Azelaic acid]
33 | 1.05 min | CC(=O)NC(C)C(=O)O (stereo not drawn) [N-ACETYLALANINE]
34 | 4 min | O=C(O)CCCCC1SCC2NC(=O)NC21 (stereo not drawn) [BIOTIN]
35 | 3.14 min | O=C(O)c1cc(=O)c2cccc(O)c2[nH]1 [Xanthurenic acid]
36 | 6.44 min | CCCCCCCCCCCCCCC(=O)O [Pentadecanoic acid]
37 | 0.722 min | O=C(O)CCC(=O)C(=O)O [α-Ketoglutaric acid]
38 | 0.77 min | CC(=O)N[C@@H](CC(=O)O)C(=O)O [N-Acetyl-L-aspartic acid]
39 | 6.91 min | CCCCCCCCCCCCCCCCCCCCCCC(=O)O [Tricosanoic acid]
40 | 6.16 min | CC(CCC(=O)NCCS(=O)(=O)O)C1CCC2C3CCC4CC(O)CCC4(C)C3CC(O)C12C (stereo not drawn) [Taurodeoxycholic acid]
41 | 1.03 min | CC(C(=O)O)C(O)(CC(=O)O)C(=O)O (racemic) [Trisodium 2-methylcitrate, racemic mixture of diastereomers]

Row | SMILES | LC retention time
42 | N#CCNC(=O)c1cnccc1C(F)(F)F [Flonicamid] | 3.4 min
43 | Cc1nn(-c2cc(NS(C)(=O)=O)c(Cl)cc2Cl)c(=O)n1C(F)F [Sulfentrazone] | 5.29 min
44 | CCCCC(O)(Cn1cncn1)c1ccc(Cl)cc1Cl (stereo not drawn) [Hexaconazole] | 5.98 min
45 | CC1(C)CCC(=Cc2ccc(Cl)cc2)C1(O)Cn1cncn1 (stereo not drawn) [Triticonazole] | 5.93 min
46 | CC1(C(=O)Nc2ccc(O)c(Cl)c2Cl)CCCCC1 [Fenhexamid] | 5.83 min
47 | O=C(O)CCCCCCCCCO [10-HYDROXYDECANOATE] | 4.92 min
48 | O=C(Nc1ccccc1)Nc1ccnc(Cl)c1 [Forchlorfenuron] | 5.17 min
